This is an account of results in patent US12221419B2, “Abietanes and methods of making and using the same” (Florida State University Research Foundation, Incorporated., priority 2022, dated 2025).

The target of assay [1] is T1, farnesyl diphosphate synthase (Homo sapiens, UniProt P14324).
T1 sequence (P14324 1-419): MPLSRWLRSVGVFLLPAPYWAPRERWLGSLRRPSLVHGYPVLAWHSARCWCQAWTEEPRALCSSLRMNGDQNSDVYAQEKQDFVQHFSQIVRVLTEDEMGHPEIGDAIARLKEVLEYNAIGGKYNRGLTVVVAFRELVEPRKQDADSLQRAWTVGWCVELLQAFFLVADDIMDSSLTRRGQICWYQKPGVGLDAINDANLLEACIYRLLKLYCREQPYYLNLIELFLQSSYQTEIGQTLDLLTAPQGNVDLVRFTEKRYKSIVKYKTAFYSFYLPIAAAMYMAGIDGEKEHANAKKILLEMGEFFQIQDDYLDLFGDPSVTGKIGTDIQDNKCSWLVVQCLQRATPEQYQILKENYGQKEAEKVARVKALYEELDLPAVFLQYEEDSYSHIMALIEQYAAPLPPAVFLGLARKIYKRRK
The following applies: statement from cited literature (ref. 28); cited from earlier work.

In the next assay the test system is glioblastoma cells. In words: activity in glioblastoma cell culture (3D 'tumor' cell growth, FIG. 6). Type of assay: cell-based. To be noted: 3D 'tumor' cells, comparator alendronate. An excerpt:
With entry to fully synthetic abietanes in hand, we explored the activity of taxodione (FL-1) and several synthetic analogs (FL-2 and FL-3) in glioblastoma cell culture (FIG. 6). […] Nevertheless, it is clear that a synthetic entry to bioactive molecules that inhibit glioblastoma cell growth has been established. This is a particularly important application because glioblastoma is an invasive brain cancer with a 5-year mean survival rate of only 5.5%. There are few effective treatments beyond surgery and ionizing radiation. Thus, new therapy modalities are urgently needed.

Take `CC(C)C1=CC2=CC(=O)[C@H]3C(C)(C)CCC[C@]3(C)C2=C(O)C1=O` (racemic) [FL-1, (±)-taxodione]: the “inhibitor of farnesyl diphosphate synthase” value in assay [1] is on record as “inhibitor of farnesyl diphosphate synthase”. Further, the “arresting 3D 'tumor' cell growth / inhibiting glioblastoma cell growth” value with glioblastoma cells is “superior to alendronate”.
